# Source: patent US9302999B2, “Substituted triazoles as herbicides” (E. I. DU PONT DE NEMOURS AND COMPANY, priority 2012, dated 2016)
# Read-outs that look alike come from different tables or passages of the source.
# Assays:
# Format in all cases: in vivo
# [1] = system: ducksalad (Heteranthera limosa); experiment: Test B flooded paddy: ducksalad; settings: Flood; 250 g ai/ha; applied to paddy water at 2-leaf stage; visually evaluated after 13 to 15 days
# In short: (§1)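 Flooded-pot test: compound dosed into 3 cm of standing water above soil when plants had two leaves. Visual control ratings (0–100) versus untreated plants after 13–15 d.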
# kochia (Kochia scoparia) = experiment: Test C pre-/postemergence: kochia
# In short: (§2)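 Preemergence on seeds in loam/sand, postemergence on 2–18 cm (1–4-leaf) plants in peat-based medium; compounds in non-phytotoxic solvent with surfactant. After 13–15 days in greenhouse, visual rating versus controls, 0 (no effect) to 100 (complete control).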
# [2] = system: ryegrass, Italian (Italian ryegrass, Lolium multiflorum); experiment: Test C pre-/postemergence: ryegrass, Italian
# In short: as §2
# [3] = system: ragweed (common ragweed, Ambrosia elation); experiment: Test C pre-/postemergence: ragweed
# In short: as §2
# [4] = system: foxtail, giant (giant foxtail, Setaria faberii); experiment: Test A pre-/postemergence: foxtail, giant; settings: Setaria faberi, 240 h; for pest or weed control at 125 g/ha: 125 g ai/ha; for pest or weed control at 500 g/ha: 500 g ai/ha
# In short: (§3)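 Visual 0–100 injury ratings (0 no effect, 100 complete control) taken about ten days after treatment, relative to untreated controls. Preemergence treatment was a directed soil spray; postemergence plants were 2–10 cm tall at one- to two-leaf stage. Soil: loam/sand blend.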
# soybean (Glycine max) = experiment: Test C pre-/postemergence: soybean
# In short: as §2
# corn (Zea mays) = experiment: Test A pre-/postemergence: corn; settings: Zea mays, 240 h; for Corn plant response rating (crop injury, 0 = no effect, 100 = complete kill) at 125 g/ha: 125 g ai/ha
# In short: as §3
# [5] = system: sedge, umbrella (small-flower umbrella sedge Cyperus difformis); experiment: Test B flooded paddy: sedge, umbrella; settings: Flood; 250 g ai/ha; applied to paddy water at 2-leaf stage; visually evaluated after 13 to 15 days
# In short: as §1
# [6] = system: chickweed (common chickweed, Stellaria media); experiment: Test C postemergence: chickweed
# In short: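 Visual 0–100 injury score vs untreated controls (0 none, 100 complete control), taken 13–15 d after treatment. Postemergence spray on potted plants, 2–18 cm, 1–4 leaves; greenhouse.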
# [7] = system: morningglory (Ipomoea spp.); experiment: Test A pre-/postemergence: morningglory; settings: Ipomoea, 240 h; for pest or weed control at 125 g/ha: 125 g ai/ha; for pest or weed control at 500 g/ha: 500 g ai/ha
# In short: as §3
# [8] = system: johnsongrass (Sorghum halepense); experiment: Test C pre-/postemergence: johnsongrass
# In short: as §2
# [9] = Postemergence, 31 g ai/ha, scale 0 to 100 (0 no effect, 100 complete control)
# [10] = Postemergence, 62 g ai/ha, scale 0 to 100 (0 no effect, 100 complete control)
# [11] = Postemergence, 125 g ai/ha, scale 0 to 100, 0 no effect, 100 complete control
# [12] = Postemergence, 250 g ai/ha, scale 0 to 100 (0 no effect, 100 complete control)
# [13] = Preemergence, 31 g ai/ha, scale 0 (no effect) to 100 (complete control)
# [14] = Preemergence, 62 g ai/ha, scale 0 to 100, 0 no effect, 100 complete control
# [15] = Preemergence, 125 g ai/ha, scale 0 to 100, 0 no effect, 100 complete control
# [16] = Preemergence, 250 g ai/ha, scale 0 to 100, 0 no effect, 100 complete control
smiles,measurement,setting,value
"CCOc1nn(-c2ccc(F)cc2)nc1Cc1ccnc(C(F)(F)F)c1 [Compound 196, 4-[[5-ethoxy-2-(4-fluorophenyl)-2H-1,2,3-triazol-4-yl]methyl]-2-(trifluoromethyl)pyridine]","Plant response rating, Ducksalad (0 to 100 scale, 0 is no effect, 100 is complete control)",[1],100
same,"Plant response rating, Kochia",kochia (Kochia scoparia); [9],85
same,"Plant response rating, Kochia",kochia (Kochia scoparia); [10],90
same,"Plant response rating, Kochia",kochia (Kochia scoparia); [11],90
same,"Plant response rating, Kochia",kochia (Kochia scoparia); [12],90
same,"Plant response rating, Kochia",kochia (Kochia scoparia); [13],90
same,"Plant response rating, Kochia",kochia (Kochia scoparia); [14],98
same,"Plant response rating, Kochia",kochia (Kochia scoparia); [15],98
same,"Plant response rating, Kochia",kochia (Kochia scoparia); [16],98
same,"Plant response rating, Ryegrass, Italian",[2]; [9],35
same,"Plant response rating, Ryegrass, Italian",[2]; [10],60
same,"Plant response rating, Ryegrass, Italian",[2]; [11],85
same,"Plant response rating, Ryegrass, Italian",[2]; [12],85
same,"Plant response rating, Ryegrass, Italian",[2]; [13],80
same,"Plant response rating, Ryegrass, Italian",[2]; [14],90
same,"Plant response rating, Ryegrass, Italian",[2]; [15],90
same,"Plant response rating, Ryegrass, Italian",[2]; [16],90
same,"Plant response rating, Ragweed",[3]; [9],70
same,"Plant response rating, Ragweed",[3]; [10],85
same,"Plant response rating, Ragweed",[3]; [11],90
same,"Plant response rating, Ragweed",[3]; [12],90
same,"Plant response rating, Ragweed",[3]; [13],40
same,"Plant response rating, Ragweed",[3]; [14],60
same,"Plant response rating, Ragweed",[3]; [15],80
same,"Plant response rating, Ragweed",[3]; [16],90
same,pest or weed control at 125 g/ha,"[4]; post-emergence, Postemergence, 0 to 100 scale, 0 is no effect, 100 is complete control, read-out: Plant response rating, Foxtail, Giant",90%
same,pest or weed control at 500 g/ha,"[4]; post-emergence, Postemergence, 0 to 100 scale, 0 is no effect, 100 is complete control, read-out: Foxtail, Giant plant response rating",90%
same,pest or weed control at 125 g/ha,"[4]; pre-emergence, Preemergence, 0 to 100 scale where 0 is no effect and 100 is complete control, read-out: Plant response rating, Foxtail, Giant",100%
same,pest or weed control at 500 g/ha,"[4]; pre-emergence, Preemergence, 0 to 100 scale (0 no effect, 100 complete control), read-out: Plant response rating, Foxtail, Giant",100%
same,"Plant response rating, Soybean",soybean (Glycine max); [9],45
same,"Plant response rating, Soybean",soybean (Glycine max); [10],50
same,"Plant response rating, Soybean",soybean (Glycine max); [11],65
same,"Plant response rating, Soybean",soybean (Glycine max); [12],70
same,"Plant response rating, Soybean",soybean (Glycine max); [13],10
same,"Plant response rating, Soybean",soybean (Glycine max); [14],15
same,"Plant response rating, Soybean",soybean (Glycine max); [15],30
same,"Plant response rating, Soybean",soybean (Glycine max); [16],35
same,"Corn plant response rating (crop injury, 0 = no effect, 100 = complete kill) at 125 g/ha","corn (Zea mays); post-emergence, Postemergence, 0 to 100 scale, 0 is no effect, 100 is complete control",70%
same,plant injury at 500 g/ha,"corn (Zea mays); post-emergence, Postemergence, 500 g ai/ha, 0 to 100 scale, 0 is no effect, 100 is complete control, read-out: Corn plant response rating",80%
same,"Corn plant response rating (crop injury, 0 = no effect, 100 = complete kill) at 125 g/ha","corn (Zea mays); pre-emergence, Preemergence, 0 to 100 scale where 0 is no effect and 100 is complete control",30%
same,"Corn plant response rating (crop injury, 0 = no effect, 100 = complete kill) at 500 g/ha","corn (Zea mays); pre-emergence, Preemergence, 500 g ai/ha, 0 to 100 scale (0 no effect, 100 complete control)",50%
same,"Plant response rating, Sedge, Umbrella (0 to 100 scale, 0 is no effect, 100 is complete control)",[5],100
same,"Plant response rating, Chickweed","[6]; 31 g ai/ha, scale 0 to 100 (0 no effect, 100 complete control)",98
same,"Plant response rating, Chickweed","[6]; 62 g ai/ha, scale 0 to 100 (0 no effect, 100 complete control)",98
same,"Plant response rating, Chickweed","[6]; 125 g ai/ha, scale 0 to 100, 0 no effect, 100 complete control",100
same,"Plant response rating, Chickweed","[6]; 250 g ai/ha, scale 0 to 100",100
same,pest or weed control at 125 g/ha,"[7]; post-emergence, Postemergence, 0 to 100 scale, 0 is no effect, 100 is complete control, read-out: Plant response rating, Morningglory",100%
same,pest or weed control at 500 g/ha,"[7]; post-emergence, Postemergence, 0 to 100 scale, 0 is no effect, 100 is complete control, read-out: Morningglory plant response rating",100%
same,pest or weed control at 125 g/ha,"[7]; pre-emergence, Preemergence, 0 to 100 scale where 0 is no effect and 100 is complete control, read-out: Plant response rating, Morningglory",60%
same,pest or weed control at 500 g/ha,"[7]; pre-emergence, Preemergence, 0 to 100 scale (0 no effect, 100 complete control), read-out: Plant response rating, Morningglory",90%
same,"Plant response rating, Johnsongrass",[8]; [9],80
same,"Plant response rating, Johnsongrass",[8]; [10],90
same,"Plant response rating, Johnsongrass",[8]; [11],90
same,"Plant response rating, Johnsongrass",[8]; [12],95
same,"Plant response rating, Johnsongrass",[8]; [13],98
same,"Plant response rating, Johnsongrass",[8]; [14],100
same,"Plant response rating, Johnsongrass",[8]; [16],100
